Data on two compounds can be found in US10815252B2, “Biflavone-copper complex, preparation method and application thereof” (NANJING FORESTRY UNIVERSITY, priority 2017, dated 2020).

Assay [1] is described as follows: Pyrogallol auto-oxidation method, free radical scavenging. The class given is biochemical. As to conditions: Tris-HCl pH 8.20, 25° C., 322 nm, read-out: IC50 to scavenge O2^−. free radical. As to the method: (§1) The free radical scavenging capability of the Ame and the Ame-Cu complex were studied by pyrogallol auto-oxidation method and ABTS method with the following steps:
(1) Pyrogallol Auto-Oxidation Method
Determination of auto-oxidation rate V0 of pyrogallol: 2 mL Tris-HCl buffer (pH=8.20) was added to a 10 mL sample tube at 25° C., 100 μL DMSO was added as a control, after adding 0.8 mL distilled water, 0.2 mL pyrogallol solution having a concentration of 2 mmol·L^−1 was added, the mixture was poured into a cuvette after mixing uniformly, the absorbance at 322 nm was measured with pure water as a blank, the A value was recorded every 10 s for a total of 4 min, linear regression was performed with t as the abscissa, and A as the ordinate, straight line slope thereof is V0, and the measurement was performed for three times to obtain an average value. […]

Assay [2] in a line: ABTS method, free radical scavenging. In kind it is biochemical. The settings on record: 25° C., 5 min reaction, 730 nm; read-out: IC50 for scavenging ABTS^+. free radicals. The protocol: as §1
Determination of ABTS^+. free radical ion scavenging capability of the blank sample: at 25° C., 2.9 mL ABTS^+. free radical ion working solution was added into a 10 mL sample tube, 100 μL DMSO was added, after reacting for 5 min, the UV-vis spectrum was measured, and the absorption intensity A0 at 730 nm was recorded.
Determination of […]. free radical ion scavenging capability of the samples: at 25° C., 2.9 mL ABTS^+. free radical ion working solution was added into a 10 mL sample tube, 100 μL samples of different concentrations that were dissolved in DMSO were added, after reacting for 5 min, the UV-vis spectrum was measured, and the absorption intensity A1 at 730 nm was recorded, and the ABTS^+. free radical ion scavenging rate was calculated according to Formula 4. SR(%)=(1−A1/A0)×100% (Formula 4)
The ABTS^+. free radical scavenging capabilities of the Ame and the Ame-Cu complex are concentration dependent. Within a certain range, the scavenging rate is linear with the concentration. The curve of the scavenging rate and the concentration (c) is plotted in the present invention to obtain a corresponding linear equation, and the maximum half-inhibitory concentration (IC50 value) is calculated.

Assay [3] deals with herring sperm DNA (fDNA). As to the kind of experiment: Interaction with fDNA by UV-vis spectroscopy, fluorescence spectroscopy and viscosity method. In kind it is binding. The settings on record: UV-vis, fluorescence (fDNA-EB system), viscosity. From the text: UV-vis spectroscopy, fluorescence spectroscopy and viscosity method are used to study the interaction between the Ame and herring sperm DNA (fDNA), and the interaction between the Ame-Cu complex and herring sperm DNA (fDNA), to further reveal the mechanism of antitumor activity, the obtained spectra are shown in FIGS. 7-11. […] Thereby, it can be speculated that the mechanism of antitumor activity of the Ame and its complex may be that Ame or the complex thereof enters the interior of the cell and intercalates with the DNA strand to cause apoptosis. Since the interaction of the complex with DNA is stronger than of the Ame, the antitumor activity thereof is also stronger than of the Ame.

Structures are written as SMILES.

The term IC50 denotes the midpoint of a concentration-inhibition curve. As for `CS(C)=[O+][Cu-4]1([O+]=S(C)C)[O+]=C2C=C(c3ccc(O)cc3)Oc3c2c(cc(O)c3-c2cc(-c3cc(=O)c4c(O)cc(O)cc4o3)ccc2O)[OH+]1` [Ame-Cu complex], the IC50 in assay [1] was 4.57 µM; in assay [2], 6.31 µM. In assay [3], the “manner of interaction with fDNA” value is on record as “intercalation manner”.
`O=c1cc(-c2ccc(O)c(-c3c(O)cc(O)c4c(=O)cc(-c5ccc(O)cc5)oc34)c2)oc2cc(O)cc(O)c12` [Ame, amentoflavone]: the IC50 in assay [1] is 23.3 µM; in assay [2], 20.7 µM. Also, the “manner of interaction with fDNA” value in assay [3] is recorded as “intercalation manner”.
